According to article PMC3408863 (European journal of medicinal chemistry, 2012):
Counter-ions that a name gives are not always drawn.

How the values were obtained:
Human FIIa = Human FIIa (Homo sapiens, UniProt P00734); assay: Chromogenic substrate hydrolysis assay, FIIa; assay type: biochemical; conditions: FXa over Human FIIa
Human FVIIa = Human FVIIa (Homo sapiens, UniProt P08709); assay: Chromogenic substrate hydrolysis assay, FVIIa; assay type: biochemical; conditions: FXa over Human FVIIa
Human FVIIa, sequence (P08709 213-466 limits assumed): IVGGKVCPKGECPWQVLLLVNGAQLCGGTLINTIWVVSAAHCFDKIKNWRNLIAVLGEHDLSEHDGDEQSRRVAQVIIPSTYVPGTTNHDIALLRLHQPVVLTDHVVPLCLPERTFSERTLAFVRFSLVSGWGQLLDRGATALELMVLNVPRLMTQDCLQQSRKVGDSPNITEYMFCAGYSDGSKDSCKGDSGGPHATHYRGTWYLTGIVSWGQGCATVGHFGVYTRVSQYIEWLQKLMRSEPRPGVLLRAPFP
Human FVIIa, sequence (P08709 61-212 limits assumed): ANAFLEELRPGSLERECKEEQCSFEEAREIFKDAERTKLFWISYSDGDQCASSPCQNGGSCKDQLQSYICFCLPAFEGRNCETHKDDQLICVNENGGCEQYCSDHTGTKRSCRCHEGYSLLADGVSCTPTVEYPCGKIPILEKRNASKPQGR
Human FVIIa, sequence (P13726 33-295 partner): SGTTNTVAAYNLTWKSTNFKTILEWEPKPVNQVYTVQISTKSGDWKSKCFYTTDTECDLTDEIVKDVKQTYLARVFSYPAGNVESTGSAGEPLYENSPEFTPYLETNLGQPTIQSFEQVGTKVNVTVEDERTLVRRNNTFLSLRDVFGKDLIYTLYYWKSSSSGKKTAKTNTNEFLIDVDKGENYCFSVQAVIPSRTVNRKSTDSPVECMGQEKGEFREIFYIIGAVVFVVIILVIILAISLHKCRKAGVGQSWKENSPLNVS

Bovine Trypsin = target: T1, Bovine Trypsin (Bos taurus, UniProt P00760); assay: Chromogenic substrate hydrolysis assay, trypsin; assay type: biochemical
T1 sequence (P00760 24-246): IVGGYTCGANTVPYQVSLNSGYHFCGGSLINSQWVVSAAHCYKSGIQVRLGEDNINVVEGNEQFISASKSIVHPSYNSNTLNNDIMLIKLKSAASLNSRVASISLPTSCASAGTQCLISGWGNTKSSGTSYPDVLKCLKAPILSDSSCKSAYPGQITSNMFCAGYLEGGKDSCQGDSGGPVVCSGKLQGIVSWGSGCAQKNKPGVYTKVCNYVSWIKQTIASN

Human FXIIa = target: T2, Human FXIIa (Homo sapiens, UniProt P00748); assay: Chromogenic substrate hydrolysis assay, FXIIa; assay type: biochemical; conditions: FXa over Human FXIIa
T2 sequence (P00748 373-615 limits assumed): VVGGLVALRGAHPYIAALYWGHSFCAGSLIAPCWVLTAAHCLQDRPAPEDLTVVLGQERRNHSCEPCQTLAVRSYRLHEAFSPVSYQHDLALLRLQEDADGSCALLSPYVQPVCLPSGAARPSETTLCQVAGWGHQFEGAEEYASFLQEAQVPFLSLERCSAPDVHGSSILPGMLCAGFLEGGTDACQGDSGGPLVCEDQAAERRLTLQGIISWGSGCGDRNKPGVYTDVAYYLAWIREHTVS
T2 sequence (P00748 20-372 limits assumed): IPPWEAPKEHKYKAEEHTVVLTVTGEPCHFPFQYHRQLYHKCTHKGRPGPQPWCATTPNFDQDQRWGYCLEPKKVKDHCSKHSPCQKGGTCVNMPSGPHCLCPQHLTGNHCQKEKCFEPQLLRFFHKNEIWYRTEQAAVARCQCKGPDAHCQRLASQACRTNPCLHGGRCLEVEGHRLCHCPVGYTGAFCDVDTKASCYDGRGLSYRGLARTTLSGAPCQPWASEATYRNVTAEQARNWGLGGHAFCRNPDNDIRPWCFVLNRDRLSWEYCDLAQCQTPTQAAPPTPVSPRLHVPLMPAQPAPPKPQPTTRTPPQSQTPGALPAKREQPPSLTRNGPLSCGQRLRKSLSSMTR

Human FIXa = Human FIXa (Homo sapiens, UniProt P00740); assay: Chromogenic substrate hydrolysis assay, FIXa; assay type: biochemical; conditions: FXa over Human FIXa
Human FIXa, sequence (P00740 227-461 limits assumed): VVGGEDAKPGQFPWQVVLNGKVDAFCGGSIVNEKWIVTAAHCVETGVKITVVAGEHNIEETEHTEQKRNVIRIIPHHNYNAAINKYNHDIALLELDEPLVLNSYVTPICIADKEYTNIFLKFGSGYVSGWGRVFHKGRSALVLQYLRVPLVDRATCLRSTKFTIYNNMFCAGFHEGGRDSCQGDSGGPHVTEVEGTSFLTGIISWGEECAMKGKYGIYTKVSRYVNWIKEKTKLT
Human FIXa, sequence (P00740 47-191 limits assumed): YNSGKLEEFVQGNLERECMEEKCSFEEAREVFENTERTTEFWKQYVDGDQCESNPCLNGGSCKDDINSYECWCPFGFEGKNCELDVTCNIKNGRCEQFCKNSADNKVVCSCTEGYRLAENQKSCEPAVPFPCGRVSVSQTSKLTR

human FXa = human FXa (Homo sapiens, UniProt P00742); assay: Direct inhibition of FXa, chromogenic substrate hydrolysis assay; assay type: biochemical
human FXa, sequence (P00742 235-488 limits assumed): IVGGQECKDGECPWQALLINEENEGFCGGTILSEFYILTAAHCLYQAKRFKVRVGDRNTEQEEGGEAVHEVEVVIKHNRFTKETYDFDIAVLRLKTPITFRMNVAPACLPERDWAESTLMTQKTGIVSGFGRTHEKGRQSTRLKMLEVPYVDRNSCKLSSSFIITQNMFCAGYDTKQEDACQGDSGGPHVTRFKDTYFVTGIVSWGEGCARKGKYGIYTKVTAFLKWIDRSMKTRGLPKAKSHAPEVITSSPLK
human FXa, sequence (P00742 41-179 limits assumed): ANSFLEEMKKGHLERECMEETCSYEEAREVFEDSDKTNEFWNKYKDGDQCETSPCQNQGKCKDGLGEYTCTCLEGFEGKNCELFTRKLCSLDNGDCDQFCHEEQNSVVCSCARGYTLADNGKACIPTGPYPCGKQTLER

Human FXIa = Human FXIa (Homo sapiens, UniProt P03951); assay: Chromogenic substrate hydrolysis assay, FXIa; assay type: biochemical; conditions: FXa over Human FXIa
Human FXIa, sequence (P03951 388-625 limits assumed): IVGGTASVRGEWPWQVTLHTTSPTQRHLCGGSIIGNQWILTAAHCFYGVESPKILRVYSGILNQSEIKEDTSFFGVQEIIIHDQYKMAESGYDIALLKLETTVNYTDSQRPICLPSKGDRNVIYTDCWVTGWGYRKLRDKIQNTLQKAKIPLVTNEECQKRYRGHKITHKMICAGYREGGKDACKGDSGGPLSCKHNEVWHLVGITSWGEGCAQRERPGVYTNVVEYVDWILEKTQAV
Human FXIa, sequence (P03951 19-387 limits assumed): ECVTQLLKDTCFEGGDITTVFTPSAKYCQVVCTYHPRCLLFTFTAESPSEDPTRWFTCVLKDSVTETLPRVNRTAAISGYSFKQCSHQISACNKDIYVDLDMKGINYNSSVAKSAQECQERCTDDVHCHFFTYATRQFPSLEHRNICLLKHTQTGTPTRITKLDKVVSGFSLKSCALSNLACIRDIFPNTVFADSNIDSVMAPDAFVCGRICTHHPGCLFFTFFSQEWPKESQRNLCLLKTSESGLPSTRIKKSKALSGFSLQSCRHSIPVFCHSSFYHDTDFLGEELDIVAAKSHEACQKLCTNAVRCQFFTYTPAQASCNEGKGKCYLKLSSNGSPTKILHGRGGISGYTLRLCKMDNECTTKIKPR

Bovine Chymotrypsin = Bovine Chymotrypsin (Bos taurus, UniProt P00766); assay: Chromogenic substrate hydrolysis assay, chymotrypsin; assay type: biochemical; conditions: FXa over chymotrypsin
human plasma = conditions: comparators in clinical trials; cited from earlier work

| Structure (SMILES) | Selectivity Index (Human FIIa) | Selectivity Index (Human FVIIa) | IC50 (Bovine Trypsin) [nM] | Selectivity Index (Bovine Trypsin; FXa over Bovine Trypsin) | selectivity against trypsin (Bovine Trypsin; FXa over trypsin) | Selectivity Index (Human FXIIa) | Selectivity Index (Human FIXa) | Ki (human FXa) [nM] | fold decrease in IC50 relative to inhibitor 13 (human FXa; FXa inhibition, relative to 13 (IC50 = 16.4 μM)) | selectivity for FXa inhibition over other coagulation enzymes (human FXa; over FIIa, FVIIa, FIXa, FXIa, and FXIIa) | Selectivity Index (Human FXIa) | selectivity against chymotrypsin (Bovine Chymotrypsin) [fold] | PT, concentration doubling the clotting time (human plasma) [µM] |
| --- | --- | --- | --- | --- | --- | --- | --- | --- | --- | --- | --- | --- | --- |
| O=C(Nc1ccc(N2CCOCC2=O)cc1)[C@H]1Cc2ccccc2CN1C(=O)Cc1ccc(Cl)cc1 [Inhibitor 47, (R)-2-(2-(4-chlorophenyl)acetyl)-N-(4-(3-oxomorpholino)phenyl)-1,2,3,4-tetrahydro-isoquinoline-3-carboxamide] | >1852 | >3703 | > 100000 | >370 | at least 370 fold | >1852 | >3703 | 135 | ~ 60 fold | at least 1852 fold | >1852 | ≥ 279 | – |
| CN(C)Cc1nccn1-c1ccc(NC(=O)c2cc(C(F)(F)F)nn2-c2ccc3onc(N)c3c2)c(F)c1 [razaxaban, 1-(3′-aminobenzisoxazol-5′-yl)-3-trifluoromethyl-N-[2-fluoro-4-[(2′-dimethylamino-methyl)imidazol-1-yl]phenyl]-1H-pyrazole-5-carboxyamide hydrochloride] | – | – | – | – | – | – | – | – | – | – | – | – | 3.8 |
